# The source made the active and inactive calls.
# Legend:
# HEK293 [1] = assay: inhibition of NOD1-driven NF-kB reporter – cell-based, luminescence, uHTS, primary screen (AID 1578); format: functional; settings: Homo sapiens
# HEK293 [2] = assay: cells; format: functional, cell-based; settings: Homo sapiens
# HEK293 [3] = assay: cells; format: functional, cell-based; settings: Homo sapiens; remark: listed apart in the source
# HEK293 [4] = assay: NOD2 signaling inhibitors in MDP-stimulated cells, cell-based, uHTS, luminescence (AID 2001); format: functional; settings: Homo sapiens
# Tumor necrosis factor = Tumor necrosis factor (Homo sapiens, UniProt P01375); assay: analog potency on TNFa NF-kB signaling – cell-based, revised, SAR follow-up (AID 2337); format: functional
# [5] = Luminescence Cell-Based Dose Retest to Confirm Inhibitors of Cancer Stem Cells. [Related pubchem assays (depositor defined):AID2717, AID2721]; format: functional; settings: Homo sapiens
# [6] = target: T1, Nucleotide-binding oligomerization domain-containing protein 1 (Homo sapiens, UniProt Q9Y239); assay: blockers of NOD1 pathway activity – revised, SAR follow-up (AID 2333); format: functional
# T1 sequence (Q9Y239 whole entry): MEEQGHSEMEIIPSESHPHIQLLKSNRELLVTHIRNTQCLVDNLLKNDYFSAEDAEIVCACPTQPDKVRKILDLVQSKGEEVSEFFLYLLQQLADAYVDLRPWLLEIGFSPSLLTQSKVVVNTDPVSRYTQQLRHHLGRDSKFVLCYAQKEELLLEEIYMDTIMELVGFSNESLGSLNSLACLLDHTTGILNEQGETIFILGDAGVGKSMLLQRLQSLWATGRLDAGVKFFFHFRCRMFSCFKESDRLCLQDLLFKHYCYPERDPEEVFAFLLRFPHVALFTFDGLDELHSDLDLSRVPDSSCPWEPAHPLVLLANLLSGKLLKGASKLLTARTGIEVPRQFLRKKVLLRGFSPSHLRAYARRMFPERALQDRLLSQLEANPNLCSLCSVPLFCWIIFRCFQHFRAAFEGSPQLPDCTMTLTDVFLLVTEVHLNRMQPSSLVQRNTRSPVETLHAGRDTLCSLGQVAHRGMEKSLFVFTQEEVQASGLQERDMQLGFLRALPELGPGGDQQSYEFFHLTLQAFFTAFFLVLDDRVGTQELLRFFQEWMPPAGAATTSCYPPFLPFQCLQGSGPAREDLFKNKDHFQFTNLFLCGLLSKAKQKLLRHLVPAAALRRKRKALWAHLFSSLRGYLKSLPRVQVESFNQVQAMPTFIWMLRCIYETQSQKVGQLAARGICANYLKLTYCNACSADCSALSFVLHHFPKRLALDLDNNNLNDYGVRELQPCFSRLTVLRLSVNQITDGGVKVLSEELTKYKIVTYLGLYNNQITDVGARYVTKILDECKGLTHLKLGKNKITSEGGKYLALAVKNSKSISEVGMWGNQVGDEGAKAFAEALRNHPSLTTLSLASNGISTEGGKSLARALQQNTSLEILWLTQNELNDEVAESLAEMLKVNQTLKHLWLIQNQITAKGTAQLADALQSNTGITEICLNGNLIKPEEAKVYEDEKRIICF
# Genome polyprotein = Genome polyprotein (dengue virus type 2, UniProt P29990); assay: flavivirus cap methylation enzyme inhibition – biochemical, confirmation dose response, primary screen (AID 588689); format: functional
# [7] = target: T2, Hepatocyte nuclear factor 4-alpha (Homo sapiens, UniProt P41235); format: functional, cell-based;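 note: biochemical luminescence-based dose-response counterscreen measuring inhibition of HNF4 dimerization, run alongside a screen for blockers of ABHD5–perilipin-5 interaction; split luciferase complementation of HNF4 fusion proteins in cell lysate measuring dimerization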
# T2 sequence (P41235 whole entry): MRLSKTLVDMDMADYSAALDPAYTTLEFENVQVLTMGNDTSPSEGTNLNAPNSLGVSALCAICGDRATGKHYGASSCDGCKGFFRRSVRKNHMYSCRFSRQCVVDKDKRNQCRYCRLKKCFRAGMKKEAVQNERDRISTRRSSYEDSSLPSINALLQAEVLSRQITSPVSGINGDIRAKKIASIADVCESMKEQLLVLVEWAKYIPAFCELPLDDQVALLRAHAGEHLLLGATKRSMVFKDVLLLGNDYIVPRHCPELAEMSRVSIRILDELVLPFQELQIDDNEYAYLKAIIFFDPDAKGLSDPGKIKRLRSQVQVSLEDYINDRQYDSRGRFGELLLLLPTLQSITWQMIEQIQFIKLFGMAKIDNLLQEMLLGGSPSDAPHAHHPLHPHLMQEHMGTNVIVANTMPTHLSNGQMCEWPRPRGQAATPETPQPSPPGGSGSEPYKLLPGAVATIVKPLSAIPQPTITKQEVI
# HEK293 [8] = assay: cells; settings: Homo sapiens
# [9] = target: Luciferin 4-monooxygenase (Photinus pyralis, UniProt P08659); assay: inhibition of purified Photinus pyralis luciferase – biochemical, luminescence, dose response (AID 1891)
# Estrogen receptor = target: T3, Estrogen receptor (Homo sapiens, UniProt P03372);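 note: potency for inhibiting coactivator peptide recruitment to the receptor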
# T3 sequence (P03372 whole entry): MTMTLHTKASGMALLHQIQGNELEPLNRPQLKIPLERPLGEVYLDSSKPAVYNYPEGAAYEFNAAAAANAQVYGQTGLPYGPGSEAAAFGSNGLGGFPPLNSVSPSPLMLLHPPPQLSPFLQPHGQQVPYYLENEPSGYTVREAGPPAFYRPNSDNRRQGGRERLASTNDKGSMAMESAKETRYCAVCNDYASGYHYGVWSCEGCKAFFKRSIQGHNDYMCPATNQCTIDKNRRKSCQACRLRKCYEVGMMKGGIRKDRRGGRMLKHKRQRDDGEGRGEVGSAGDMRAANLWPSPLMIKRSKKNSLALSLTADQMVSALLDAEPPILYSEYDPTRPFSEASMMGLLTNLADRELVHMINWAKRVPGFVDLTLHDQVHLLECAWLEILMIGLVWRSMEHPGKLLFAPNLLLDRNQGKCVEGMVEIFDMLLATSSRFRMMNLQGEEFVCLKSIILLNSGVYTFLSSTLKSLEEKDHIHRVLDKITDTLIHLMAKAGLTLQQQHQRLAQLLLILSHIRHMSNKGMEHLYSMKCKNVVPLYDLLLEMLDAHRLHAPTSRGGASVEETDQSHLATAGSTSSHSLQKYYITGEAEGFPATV
# [10] = Luminescence Cell-Based Dose Confirmation HTS to Identify Inhibitors of Platelet Dense Granule Release. [Related pubchem assays: 1663 (Primary HTS), 1678 (Summary of Project)]; format: functional
# [11] = target: G-protein coupled receptor 55 (Homo sapiens, UniProt Q9Y2T6); assay: selective activators of receptor GPR55 – imaging, U2OS cells, beta-arrestin-GFP redistribution, primary screen (AID 1961); format: functional
# [12] = target: Eukaryotic translation initiation factor 4E (Mus musculus, UniProt P63073); assay: blockers of eIF4G binding by eIF4E – biochemical, TR-FRET, dose response (AID 855); format: functional;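 note: potency for disrupting eIF4E binding to eIF4GI seen as loss of FRET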
# [13] = HEK-293T cell viability reduction – luminescence, B-cell screen hits, cytotoxicity control for BCR NF-kB inhibitor project, dose response (AID 489021); format: functional, cell-based;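 note: HEK-293T cells carrying an NF-kB luciferase reporter; cells exposed to compound for about 14 hours before viability readout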
# H9c2 = assay: cells; format: functional, cell-based; settings: Rattus norvegicus, H9c2, Myocardium;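 note: confirmatory concentration-response retest of ultra-high-throughput screening hits for modulation of myocardial damage; cell death induced by hydrogen peroxide oxidative stress; compound pretreatment for 60 min then peroxide exposure for 2 h; potency is for protecting the cells against peroxide damage rather than for killing them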
# [14] = target: DNA dC->dU-editing enzyme APOBEC-3A (Homo sapiens, UniProt P31941); assay: A3A deaminase inhibition for selectivity – biochemical, dose response (AID 504722); format: functional
# [15] = target: DNA dC->dU-editing enzyme APOBEC-3G (Homo sapiens, UniProt Q9HC16); assay: Dose Response confirmation of small molecule APOBEC3G DNA Deaminase Inhibitors via a fluorescence-based single-stranded DNA deaminase assay. [Related pubchem assays (depositor defined):AID493012, AID493028]; format: functional
# [16] = M. tuberculosis H37Rv growth inhibitors, H37Rv strain (AID 1626); format: functional
# INS1 = assay: INS-1E survival protection against cytokine death – cell-based, luminescence, retest, dose response (AID 449756); format: functional; settings: Rattus norvegicus;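 note: cell death triggered by IL-1 beta plus TNF-alpha plus IFN-gamma mixture; protective hits raise ATP signal compared with cytokine alone wells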
# Tumor necrosis factor, sequence (P01375 whole entry): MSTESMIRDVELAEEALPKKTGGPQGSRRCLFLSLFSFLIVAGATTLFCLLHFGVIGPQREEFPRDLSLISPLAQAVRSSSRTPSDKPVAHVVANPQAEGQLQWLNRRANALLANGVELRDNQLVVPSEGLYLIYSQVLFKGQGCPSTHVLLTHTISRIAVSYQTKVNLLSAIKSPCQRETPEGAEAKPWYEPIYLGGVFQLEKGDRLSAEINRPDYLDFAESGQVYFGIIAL
# DNA dC->dU-editing enzyme APOBEC-3A, sequence (P31941 whole entry): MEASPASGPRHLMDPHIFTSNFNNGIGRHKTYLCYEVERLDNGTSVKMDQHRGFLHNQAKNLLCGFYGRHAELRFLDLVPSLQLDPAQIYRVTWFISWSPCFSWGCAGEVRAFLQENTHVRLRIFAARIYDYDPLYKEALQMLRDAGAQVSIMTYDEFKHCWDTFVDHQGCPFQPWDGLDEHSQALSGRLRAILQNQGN
# Genome polyprotein, sequence (P29990 2492-3391 limits assumed): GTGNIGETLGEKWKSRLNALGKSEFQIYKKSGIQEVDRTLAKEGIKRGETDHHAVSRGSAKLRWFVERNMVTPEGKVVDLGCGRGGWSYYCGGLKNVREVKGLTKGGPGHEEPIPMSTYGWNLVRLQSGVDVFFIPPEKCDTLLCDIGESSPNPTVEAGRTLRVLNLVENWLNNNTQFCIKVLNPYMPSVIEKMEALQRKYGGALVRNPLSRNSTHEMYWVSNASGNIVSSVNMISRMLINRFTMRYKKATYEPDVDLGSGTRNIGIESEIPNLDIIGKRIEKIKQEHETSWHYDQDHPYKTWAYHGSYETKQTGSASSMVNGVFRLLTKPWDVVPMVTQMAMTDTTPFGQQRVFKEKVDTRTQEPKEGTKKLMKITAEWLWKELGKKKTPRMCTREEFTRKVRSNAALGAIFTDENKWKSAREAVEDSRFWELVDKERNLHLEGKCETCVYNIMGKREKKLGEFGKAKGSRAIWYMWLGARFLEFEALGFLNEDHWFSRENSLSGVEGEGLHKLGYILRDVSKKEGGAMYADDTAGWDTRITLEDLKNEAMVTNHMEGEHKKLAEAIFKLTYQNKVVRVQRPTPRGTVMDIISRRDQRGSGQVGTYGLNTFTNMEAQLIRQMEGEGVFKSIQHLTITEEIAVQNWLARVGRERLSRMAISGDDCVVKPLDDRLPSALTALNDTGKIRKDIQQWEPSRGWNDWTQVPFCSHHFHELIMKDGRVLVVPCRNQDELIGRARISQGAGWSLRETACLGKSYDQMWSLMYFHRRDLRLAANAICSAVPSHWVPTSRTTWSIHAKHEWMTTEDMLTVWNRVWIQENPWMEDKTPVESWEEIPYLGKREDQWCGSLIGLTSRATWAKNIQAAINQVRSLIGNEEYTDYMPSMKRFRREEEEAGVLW
# G-protein coupled receptor 55, sequence (Q9Y2T6 whole entry): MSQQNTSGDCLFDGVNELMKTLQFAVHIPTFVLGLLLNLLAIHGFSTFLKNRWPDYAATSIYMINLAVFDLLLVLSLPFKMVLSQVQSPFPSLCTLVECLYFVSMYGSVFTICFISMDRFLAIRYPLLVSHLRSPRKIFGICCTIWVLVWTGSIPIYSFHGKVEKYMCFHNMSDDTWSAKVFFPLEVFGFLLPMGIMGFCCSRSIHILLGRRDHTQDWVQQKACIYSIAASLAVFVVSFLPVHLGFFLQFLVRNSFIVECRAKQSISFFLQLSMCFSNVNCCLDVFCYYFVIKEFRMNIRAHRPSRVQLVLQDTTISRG
# Luciferin 4-monooxygenase, sequence (P08659 whole entry): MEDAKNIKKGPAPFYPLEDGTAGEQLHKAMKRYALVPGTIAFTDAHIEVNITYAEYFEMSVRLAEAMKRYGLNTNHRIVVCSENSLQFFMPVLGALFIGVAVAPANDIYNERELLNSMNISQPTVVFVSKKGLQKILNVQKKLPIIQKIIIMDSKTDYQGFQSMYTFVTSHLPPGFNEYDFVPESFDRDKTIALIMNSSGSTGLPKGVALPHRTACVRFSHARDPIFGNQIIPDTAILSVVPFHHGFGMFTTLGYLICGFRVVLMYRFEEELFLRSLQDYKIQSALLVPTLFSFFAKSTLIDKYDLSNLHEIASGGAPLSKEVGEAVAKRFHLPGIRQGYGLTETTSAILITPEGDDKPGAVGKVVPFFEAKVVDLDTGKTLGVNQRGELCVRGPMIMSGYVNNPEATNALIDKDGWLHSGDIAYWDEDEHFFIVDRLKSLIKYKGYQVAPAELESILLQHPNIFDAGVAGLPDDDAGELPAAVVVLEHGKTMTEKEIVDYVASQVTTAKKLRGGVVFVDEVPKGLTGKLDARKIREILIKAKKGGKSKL
# DNA dC->dU-editing enzyme APOBEC-3G, sequence (Q9HC16 whole entry): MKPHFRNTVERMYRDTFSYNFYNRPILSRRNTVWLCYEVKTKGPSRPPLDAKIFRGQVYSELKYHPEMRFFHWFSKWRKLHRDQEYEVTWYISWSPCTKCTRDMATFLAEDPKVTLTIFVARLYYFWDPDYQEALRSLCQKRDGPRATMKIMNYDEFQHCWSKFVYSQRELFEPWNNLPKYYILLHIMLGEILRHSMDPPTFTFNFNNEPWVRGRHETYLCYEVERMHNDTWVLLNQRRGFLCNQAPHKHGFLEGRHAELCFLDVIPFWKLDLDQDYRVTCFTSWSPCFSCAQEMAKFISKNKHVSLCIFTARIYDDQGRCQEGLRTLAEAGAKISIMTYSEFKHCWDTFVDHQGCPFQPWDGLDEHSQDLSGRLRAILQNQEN
# Eukaryotic translation initiation factor 4E, sequence (P63073 whole entry): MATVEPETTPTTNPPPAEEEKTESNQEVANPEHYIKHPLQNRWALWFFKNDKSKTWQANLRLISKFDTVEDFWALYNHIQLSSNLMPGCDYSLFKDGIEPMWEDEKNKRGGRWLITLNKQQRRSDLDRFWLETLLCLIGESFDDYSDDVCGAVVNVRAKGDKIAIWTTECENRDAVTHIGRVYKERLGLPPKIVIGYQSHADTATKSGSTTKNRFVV
smiles,measurement,setting,value
Oc1nc(/C=C/c2ccc(Cl)cc2Cl)cc(C(F)(F)F)n1,EC50,HEK293 [1],3.83 µM (active)
same,IC50,HEK293 [2],7.72 µM (active)
same,IC50,HEK293 [3],> 20 µM (inactive)
same,IC50,HEK293 [4],5.9 µM (active)
same,IC50,Tumor necrosis factor,3.75 µM (active)
same,AC50,[5],1.49 µM (active)
same,IC50,[6],1.74 µM (active)
same,IC50,Genome polyprotein,68.2 µM (active)
same,IC50,[7],4.57 µM (active)
same,IC50,HEK293 [8],11.9 µM (active)
O=C(NCc1ccco1)c1nn2c(C(F)(F)F)cc(-c3cccs3)nc2c1Br,EC50,[9],> 112 µM (not active)
same,IC50,Estrogen receptor,36.9 µM (not active)
same,EC50,[10],> 112 µM (not active)
same,EC50,[11],> 32 µM (inactive)
Nc1nnc(SCc2ccccc2Cl)s1,IC50,[12],> 64 µM (inactive)
CC(C)N1C(=O)S/C(=C/c2ccc3c(c2)n(C)c(=O)n3C)C1=O,IC50,[13],> 80 µM (inactive)
same,IC50,H9c2,32.2 µM (inactive)
CCOC(=O)CSc1nnc(S)s1,IC50,[14],> 100 µM (inactive)
same,IC50,[15],15 µM (active)
CC1(C)CC(NC(=O)c2sc3cc(Cl)ccc3c2Cl)CC(C)(C)N1,IC50,[16],> 100 µM (active)
COc1ccccc1CNc1ncnc2sccc12,EC50,HEK293 [1],1.69 µM (active)
same,IC50,HEK293 [2],4.4 µM (active)
same,IC50,HEK293 [3],14.8 µM (active)
same,IC50,HEK293 [4],8.12 µM (active)
same,IC50,Tumor necrosis factor,4.19 µM (active)
same,IC50,[6],3.08 µM (active)
same,AC50,INS1,4.26 µM (active)
same,IC50,HEK293 [8],> 20 µM (inactive)
